Data reported in PubChem BioAssay (NCI).
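Each compound was tested at five concentrations against cells in 96-well plates for 48 hours. TGI: total growth inhibition.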

Experiments:
Assay in all cases: NCI anticancer screen, dose series, 48 h
786-0 renal = system: 786-0 renal
A498 renal = system: A498 renal
A549 NSCLC = system: A549 NSCLC
ACHN renal = system: ACHN renal
BT-549 breast = system: BT-549 breast
CAKI-1 renal = system: CAKI-1 renal
CCRF-CEM leukemia = system: CCRF-CEM leukemia
COLO 205 colon = system: COLO 205 colon
DU-145 prostate = system: DU-145 prostate
EKVX NSCLC = system: EKVX NSCLC
HCC-2998 colon = system: HCC-2998 colon
HCT-116 colon = system: HCT-116 colon
HCT-15 colon = system: HCT-15 colon
HL-60(TB) leukemia = system: HL-60(TB) leukemia
HOP-62 NSCLC = system: HOP-62 NSCLC
HOP-92 NSCLC = system: HOP-92 NSCLC
HS 578T breast = system: HS 578T breast
HT29 colon = system: HT29 colon
IGROV1 ovarian = system: IGROV1 ovarian
K-562 leukemia = system: K-562 leukemia
KM12 colon = system: KM12 colon
LOX IMVI melanoma = system: LOX IMVI melanoma
M14 melanoma = system: M14 melanoma
MALME-3M melanoma = system: MALME-3M melanoma
MCF7 breast = system: MCF7 breast
MDA-MB-231 breast = system: MDA-MB-231 breast
MDA-MB-435 = system: MDA-MB-435
MDA-N = system: MDA-N
MOLT-4 leukemia = system: MOLT-4 leukemia
NCI-H226 lung = system: NCI-H226 lung
NCI-H23 lung = system: NCI-H23 lung
NCI-H460 lung = system: NCI-H460 lung
NCI-H522 lung = system: NCI-H522 lung
NCI/ADR-RES ovarian = system: NCI/ADR-RES ovarian
OVCAR-3 ovarian = system: OVCAR-3 ovarian
OVCAR-4 ovarian = system: OVCAR-4 ovarian
OVCAR-5 ovarian = system: OVCAR-5 ovarian
OVCAR-8 ovarian = system: OVCAR-8 ovarian
PC-3 prostate = system: PC-3 prostate
RPMI-8226 leukemia = system: RPMI-8226 leukemia
RXF 393 renal = system: RXF 393 renal
SF-268 CNS = system: SF-268 CNS
SF-295 CNS = system: SF-295 CNS
SF-539 CNS = system: SF-539 CNS
SK-MEL-2 melanoma = system: SK-MEL-2 melanoma
SK-MEL-28 melanoma = system: SK-MEL-28 melanoma
SK-MEL-5 melanoma = system: SK-MEL-5 melanoma
SK-OV-3 ovarian = system: SK-OV-3 ovarian
SN12C renal = system: SN12C renal
SNB-19 CNS = system: SNB-19 CNS
SNB-75 CNS = system: SNB-75 CNS
SR leukemia = system: SR leukemia
SW-620 colon = system: SW-620 colon
T-47D breast = system: T-47D breast
TK-10 renal = system: TK-10 renal
U251 CNS = system: U251 CNS
UACC-257 melanoma = system: UACC-257 melanoma
UACC-62 melanoma = system: UACC-62 melanoma
UO-31 renal = system: UO-31 renal
DLD-1 colon = system: DLD-1 colon
DMS 273 small cell lung = system: DMS 273 small cell lung
KM20L2 colon = system: KM20L2 colon
LXFL 529 NSCLC = system: LXFL 529 NSCLC
M19-MEL melanoma = system: M19-MEL melanoma
SNB-78 CNS = system: SNB-78 CNS

Question: `O=S(=O)(CC(Cl)c1ccccc1)c1nc2ccccc2s1` (stereo not given) was tested. Which TGI (786-0 renal) did it give?
Answer: The TGI was 19.4 µM.

Question: What about the TGI (A498 renal) of the same compound?
Answer: Its TGI is 35.1 µM.

Question: What about the TGI (A549 NSCLC) of the same compound?
Answer: The TGI was 43.1 µM.

Question: What about the TGI (ACHN renal) of the same compound?
Answer: The TGI was 29.1 µM.

Question: What about the TGI (BT-549 breast) of the same compound?
Answer: Its TGI is 8.72 µM.

Question: What about the TGI (CAKI-1 renal) of the same compound?
Answer: The TGI was 4.4 µM.

Question: What about the TGI (CCRF-CEM leukemia) of the same compound?
Answer: The TGI was 4.28 µM.

Question: And the TGI (COLO 205 colon)?
Answer: The TGI was 22.2 µM.

Question: What about the TGI (DU-145 prostate) of the same compound?
Answer: Its TGI is 30.2 µM.

Question: And the TGI (EKVX NSCLC)?
Answer: The TGI was 35.4 µM.

Question: And the TGI (HCC-2998 colon)?
Answer: Its TGI is 31.8 µM.

Question: And the TGI (HCT-116 colon)?
Answer: Its TGI is 23.6 µM.

Question: And the TGI (HCT-15 colon)?
Answer: Its TGI is 21.9 µM.

Question: And the TGI (HL-60(TB) leukemia)?
Answer: Its TGI is 4.43 µM.

Question: And the TGI (HOP-62 NSCLC)?
Answer: The TGI was 41.1 µM.

Question: What about the TGI (HOP-92 NSCLC) of the same compound?
Answer: Its TGI is 9.38 µM.

Question: What about the TGI (HS 578T breast) of the same compound?
Answer: Its TGI is > 69 µM.

Question: And the TGI (HT29 colon)?
Answer: The TGI was 21.2 µM.

Question: What about the TGI (IGROV1 ovarian) of the same compound?
Answer: The TGI was 24.2 µM.

Question: What about the TGI (K-562 leukemia) of the same compound?
Answer: Its TGI is 7.43 µM.

Question: And the TGI (KM12 colon)?
Answer: The TGI was 32 µM.

Question: What about the TGI (LOX IMVI melanoma) of the same compound?
Answer: The TGI was 4.04 µM.

Question: And the TGI (M14 melanoma)?
Answer: The TGI was 7.2 µM.

Question: What about the TGI (MALME-3M melanoma) of the same compound?
Answer: Its TGI is 23.6 µM.

Question: And the TGI (MCF7 breast)?
Answer: Its TGI is 23.3 µM.

Question: And the TGI (MDA-MB-231 breast)?
Answer: Its TGI is 30.4 µM.

Question: What about the TGI (MDA-MB-435) of the same compound?
Answer: The TGI was 20.5 µM.

Question: What about the TGI (MDA-N) of the same compound?
Answer: Its TGI is 18.1 µM.

Question: And the TGI (MOLT-4 leukemia)?
Answer: Its TGI is 7.64 µM.

Question: And the TGI (NCI-H226 lung)?
Answer: Its TGI is 22.1 µM.

Question: And the TGI (NCI-H23 lung)?
Answer: Its TGI is 25.5 µM.

Question: What about the TGI (NCI-H460 lung) of the same compound?
Answer: Its TGI is 52.4 µM.

Question: And the TGI (NCI-H522 lung)?
Answer: Its TGI is 4.89 µM.

Question: And the TGI (NCI/ADR-RES ovarian)?
Answer: Its TGI is 49 µM.

Question: And the TGI (OVCAR-3 ovarian)?
Answer: Its TGI is 23.2 µM.

Question: And the TGI (OVCAR-4 ovarian)?
Answer: Its TGI is 51.1 µM.

Question: And the TGI (OVCAR-5 ovarian)?
Answer: Its TGI is 28.8 µM.

Question: What about the TGI (OVCAR-8 ovarian) of the same compound?
Answer: Its TGI is 23.8 µM.

Question: And the TGI (PC-3 prostate)?
Answer: Its TGI is 29.9 µM.

Question: What about the TGI (RPMI-8226 leukemia) of the same compound?
Answer: Its TGI is 9.65 µM.

Question: And the TGI (RXF 393 renal)?
Answer: Its TGI is 42 µM.

Question: What about the TGI (SF-268 CNS) of the same compound?
Answer: Its TGI is 33.1 µM.

Question: What about the TGI (SF-295 CNS) of the same compound?
Answer: The TGI was 32.6 µM.

Question: What about the TGI (SF-539 CNS) of the same compound?
Answer: The TGI was 23.9 µM.

Question: And the TGI (SK-MEL-2 melanoma)?
Answer: The TGI was 37.4 µM.

Question: And the TGI (SK-MEL-28 melanoma)?
Answer: Its TGI is 29.7 µM.

Question: And the TGI (SK-MEL-5 melanoma)?
Answer: The TGI was 16.7 µM.

Question: And the TGI (SK-OV-3 ovarian)?
Answer: The TGI was 32.9 µM.

Question: And the TGI (SN12C renal)?
Answer: The TGI was 30.3 µM.

Question: And the TGI (SNB-19 CNS)?
Answer: Its TGI is 32.3 µM.

Question: And the TGI (SNB-75 CNS)?
Answer: Its TGI is 27.8 µM.

Question: What about the TGI (SR leukemia) of the same compound?
Answer: The TGI was 4.55 µM.

Question: And the TGI (SW-620 colon)?
Answer: The TGI was 20.7 µM.

Question: And the TGI (T-47D breast)?
Answer: Its TGI is 41.7 µM.

Question: And the TGI (TK-10 renal)?
Answer: Its TGI is 34.2 µM.

Question: What about the TGI (U251 CNS) of the same compound?
Answer: The TGI was 25.9 µM.

Question: And the TGI (UACC-257 melanoma)?
Answer: The TGI was 23.2 µM.

Question: And the TGI (UACC-62 melanoma)?
Answer: Its TGI is 40 µM.

Question: And the TGI (UO-31 renal)?
Answer: Its TGI is 29.4 µM.

Question: Which results are given for `Cc1ccc(C(=O)NC2CCCCC2)cc1N=NN(C)C`?
Answer: TGI (786-0 renal): > 100 µM; TGI (A549 NSCLC): > 100 µM; TGI (ACHN renal): > 100 µM; TGI (CAKI-1 renal): > 100 µM; TGI (DLD-1 colon): > 100 µM; TGI (DMS 273 small cell lung): > 100 µM; TGI (EKVX NSCLC): > 100 µM; TGI (HCC-2998 colon): > 100 µM; TGI (HCT-116 colon): > 100 µM; TGI (HCT-15 colon): > 100 µM; TGI (HOP-62 NSCLC): > 100 µM; TGI (HOP-92 NSCLC): > 100 µM; TGI (HT29 colon): > 100 µM; TGI (IGROV1 ovarian): > 100 µM; TGI (KM12 colon): > 100 µM; TGI (KM20L2 colon): > 100 µM; TGI (LOX IMVI melanoma): > 100 µM; TGI (LXFL 529 NSCLC): > 100 µM; TGI (M14 melanoma): > 100 µM; TGI (M19-MEL melanoma): > 100 µM; TGI (NCI-H23 lung): > 100 µM; TGI (NCI-H460 lung): > 100 µM; TGI (NCI-H522 lung): > 100 µM; TGI (OVCAR-3 ovarian): > 100 µM; TGI (OVCAR-4 ovarian): > 100 µM; TGI (OVCAR-8 ovarian): > 100 µM; TGI (SF-268 CNS): > 100 µM; TGI (SF-295 CNS): > 100 µM; TGI (SF-539 CNS): > 100 µM; TGI (SK-MEL-2 melanoma): > 100 µM; TGI (SK-MEL-28 melanoma): > 100 µM; TGI (SK-MEL-5 melanoma): > 100 µM; TGI (SN12C renal): > 100 µM; TGI (SNB-19 CNS): > 100 µM; TGI (SNB-78 CNS): > 100 µM; TGI (SW-620 colon): > 100 µM; TGI (TK-10 renal): > 100 µM; TGI (U251 CNS): > 100 µM; TGI (UACC-257 melanoma): > 100 µM; TGI (UACC-62 melanoma): > 100 µM; TGI (UO-31 renal): > 100 µM
